“And” between values parts separate entries of the source, which are not always exact repeats. Equal values may be shown once. Read-outs that look alike come from different tables or passages of the source.
Experiments:
[1] = target: T1, TbHK1 (Trypanosoma brucei brucei, UniProt Q38C42); assay: TbHK1 coupled enzyme HTS assay (G6PDH coupled, bacterially expressed rTbHK1); format: biochemical; details: for Fold less potent upon resupply (TbHK1 IC50 versus cherry-picked compound): resupplied versus cherry-picked compound
Protocol: For purification of bacterially expressed TbHK1 (rTbHK1), a previously described protocol was modified to increase yield. Briefly, a starter culture of E. coli M15(pREP) harboring pQE30 (Qiagen, Valencia, CA) with the TbHK1 gene cloned in frame of a 6-His tagging sequence was grown in ECPM1 [9] and then inoculated into a 5 L bioreactor (Biostat B, B. Braun Biotech International, Allentown, PA) and grown at 37°C. At OD600 between 3–5, the culture was induced with IPTG (0.8 mM), grown without supplement O2 (37°C, 16 hr), and cells collected by centrifugation (5000×g, 20 min, 4°C). The pellet was resuspended in lysis buffer (50 mM NaPO4, pH 8.1, 5 mM glucose, 150 mM NaCl, and 0.1% Tween) and lysed by using a cell disruptor (Constant Cell Disruption Systems, Sanford, NC). The resulting supernatant was applied (5 ml/min) to a 50 ml ProBind column (Invitrogen, Eugene, OR) on a FPLC (GE Lifesciences, Piscataway, NJ) and protein eluted by gradient (5 to 250 mM imidazole) in lysis buffer. Fractions were screened using HK activity assays and Western blotting and those containing rTbHK1 were pooled, concentrated, and applied to a HiTrap SP HP column (GE Lifesciences, Piscataway, NJ).
TbHK1 assays were an adaptation of a coupled enzyme HK assay to a 384-well format, [10]. Briefly, test and control compounds (30 µM in 15 µL volume) were added to a 384 well black, opaque microtiter plate using a Velocity 11 V-prep (Santa Clara, CA) for a final test compound concentration of 10 µM. […] The 45 µL reaction mixture was incubated at RT for 2 hr and then quenched with 5 µL EDTA (500 mM). The resulting signal, which remained stable for up to 5 hr after addition of stop reagent, was collected on a Molecular Devices SpectraMax M5 (absorbance at OD340)(Sunnyvale, CA).

[2] = target: T2, human HK 4 (human glucokinase, hGlk) (Homo sapiens, UniProt P35557); assay: Specificity assay against human HK 4 (human glucokinase, hGlk); format: biochemical; details: for inhibition at 10 µM: read-out: % Inhibition of hGlck (10 µM)
T2 construct: His tag (from pQE30); made in house; host or cells: E. coli M15 (pREP)
T2 sequence (P35557 1-465): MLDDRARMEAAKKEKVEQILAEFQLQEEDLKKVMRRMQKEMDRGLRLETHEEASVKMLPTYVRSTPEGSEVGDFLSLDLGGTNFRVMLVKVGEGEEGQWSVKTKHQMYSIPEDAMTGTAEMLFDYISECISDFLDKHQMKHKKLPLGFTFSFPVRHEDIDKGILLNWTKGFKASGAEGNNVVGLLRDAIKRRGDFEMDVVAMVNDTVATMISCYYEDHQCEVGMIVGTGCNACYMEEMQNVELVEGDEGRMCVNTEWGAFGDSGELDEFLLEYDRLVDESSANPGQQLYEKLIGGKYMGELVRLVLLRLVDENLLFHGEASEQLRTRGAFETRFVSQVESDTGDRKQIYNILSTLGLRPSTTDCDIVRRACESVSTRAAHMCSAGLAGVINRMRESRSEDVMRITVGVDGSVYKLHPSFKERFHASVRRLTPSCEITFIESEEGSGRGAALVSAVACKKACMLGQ
Protocol: Additional specificity assays were performed using human HK 4 (human glucokinase, hGlk, GenBank accession no. BC001890) that was expressed from a cloned cDNA (OPEN Biosystems, Huntsville, AL) in pQE30.

[3] = system: BSF T. brucei parasites (cell line 90-13, a 427 strain); assay: T. brucei BSF viability assay (CellTiter Blue); format: cell-based, Trypanosoma brucei; details: for EC50: Trypanosoma brucei; for Toxicity to BSF at 10 µM: cell density after 72 hr
Protocol: CellTiter Blue (Promega, Madison WI) was added (20 µl) and the plates incubated an additional 3 hr under standard culture conditions.

[4] = system: PF T. brucei parasites (29-13, a 427 strain); assay: Procyclic form (PF) parasite growth assay; format: cell-based; details: Trypanosoma brucei, A-427, 48 h, read-out: % PF Growth Inhibition (10 µM)
Protocol: Plates were then incubated for 1 hr under standard culture conditions. Fluorescence of samples was then characterized as above.

[5] = system: Leishmania promastigotes; assay: Leishmania promastigote specificity assay; format: cell-based, L. major; details: 44 h
Protocol: Cell-based specificity assays were performed as previously described. Briefly, mammalian cell line and Leishmania promastigote assays were performed in final volumes of 25 µL using our previously described 384-well microtiter format. All mammalian cell lines were cultured and maintained in complete growth medium preparations according to ATCC specifications (ATCC, Manassas, VA). Leishmania promastigotes were cultured as previously described. […] Vehicle and positive controls were 1% and 10% DMSO, respectively. For mammalian cells, assay plates were incubated for 44–46 h at 37°C in the presence of 5% CO2 and for the Leishmania promastigotes, assay plates were incubated for 44 h at 28°C with 5% CO2. Five µL of CellTiter Blue reagent was added to each assay plate well and incubated for 2–4 h at 37°C with 5% CO2. Data were captured on a Molecular Devices SpectraMax M5 (excitation A560; emission A590).

[6] = target: T. brucei lysate-derived TbHK1 (Trypanosoma brucei brucei, UniProt Q38C42); assay: Inhibition assay of lysate-derived TbHK; format: biochemical; details: read-out: IC50 against T. brucei lysate-derived TbHK1 enzymatic activity; 2×10^5 BSF cell equivalents, 15 min preincubation at RT
Protocol: (§1) Parasite lysates from BSF parasites were prepared by incubation (5 min on ice) of 1.5×10^7 cells in lysis buffer (0.1 M TEA, pH 7.4, and 0.1% Triton X-100) supplemented with 1 mM PMSF, 5 µg/ml leupeptin, and 100 µg/ml TLCK. In triplicate, cell equivalents (2×10^5) were incubated with increasing concentrations of inhibitor for 15 minutes at RT prior to initiation of the coupled reaction. In short, the 200 µl reactions included 50 mM TEA, pH 7.4, 33 mM MgCl2, 20 mM glucose, 5.25 mM ATP, 0.75 mM NADP, and 0.1 units of G6PDH, with kinetic analyses performed using KaleidaGraph 4.1 (Synergy Software, Reading, PA).

[7] = target: T1, TbHK1; assay: Kinetic analysis of TbHK1 inhibition with respect to ATP (Lineweaver-Burk); format: biochemical
Protocol: as §1
Assays were performed as described for cell lystates (see Materials and Methods) with ATP concentrations varied.

[8] = system: cellular G6P levels in BSF parasites; assay: Cellular G6P levels in BSF parasites grown with compound; format: cell-based, Trypanosoma brucei
[9] = cited from earlier work
[10] = target: T1, TbHK1; set-up: method as in Lyda and Morris, unpublished; details: previously identified inhibitor; ref Lyda and Morris, unpublished; cited from earlier work
[11] = resupplied compound, bacterially expressed TbHK1, read-out: IC50 (µM) Resupply
[12] = A-427, bloodstream form parasites, 3 days (72 hr), read-out: BSF EC50
[13] = procyclic form parasites, 10 µM, 2 days
[14] = promastigotes, read-out: L. major EC50
[15] = A-427, 72 h, read-out: BSF EC50 (µM)

T1 sequence (Q38C42 entry or part of it): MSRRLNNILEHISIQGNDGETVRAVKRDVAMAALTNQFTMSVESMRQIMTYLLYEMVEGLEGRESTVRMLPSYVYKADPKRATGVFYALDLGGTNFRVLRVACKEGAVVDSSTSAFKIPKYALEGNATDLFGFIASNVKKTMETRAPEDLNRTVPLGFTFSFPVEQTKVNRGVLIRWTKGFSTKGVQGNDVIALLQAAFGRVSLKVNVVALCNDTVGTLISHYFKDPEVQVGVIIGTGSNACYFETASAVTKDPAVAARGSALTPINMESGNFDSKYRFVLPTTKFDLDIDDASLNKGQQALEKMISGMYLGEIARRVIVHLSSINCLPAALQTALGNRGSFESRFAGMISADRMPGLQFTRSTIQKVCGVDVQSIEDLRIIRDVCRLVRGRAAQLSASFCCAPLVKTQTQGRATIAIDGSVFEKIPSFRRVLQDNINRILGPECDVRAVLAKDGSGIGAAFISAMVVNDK
T. brucei lysate-derived TbHK1, sequence (Q38C42 entry or part of it): as above

| Structure (SMILES) | IC50 [1, 11] [µM] | inhibition at 10 µM ([2]; 10 µM compound) [%] | EC50 [3, 12] [µM] | inhibition at 10 µM [4, 13] [%] | EC50 [5, 14] [µM] | Toxicity to BSF at 10 µM [3] | further results |
| --- | --- | --- | --- | --- | --- | --- | --- |
| O=C(Cn1sc2ccccc2c1=O)NC12CC3CC(CC(C3)C1)C2 [SID 16952891] | 2.6 ± 0.2 | 44.9 ± 9.9 | 0.3 ± 0.079 | 47 ± 0.15 | > 12.5 |  |  |
| O=c1c2ccccc2[se]n1-c1ccccc1 [Ebselen, 2-phenyl-1,2-benzisoselenazol-3(2H)-one, reference compound] | 0.05 ± 0.03 | 97.8 ± 0.1 | 2.9 ± 0.28 | 51 ± 0.16 | 4.1 ± 0.4 |  | IC50 [6]: 0.43 ± 0.02 µM; Ki [7]: 6.13 µM; Nature of TbHK1 inhibition ([7]; with respect to ATP): mixed inhibitors; Reduction in cellular G6P ([8]; 1 hour, 10 times the EC50 (30 µM ebselen, 1 µM SID 17387000), versus untreated parasites): 56%; Reduction in cellular G6P ([8]; 4 hours, 10 times the EC50 (30 µM ebselen, 1 µM SID 17387000), versus untreated parasites): 70%; Brain levels as percent of plasma levels [9]: 21%; Serum values ([9]; single oral dose (100 mg/kg)): 4 to 5 µM |
| O=c1c(O)c(-c2ccc(O)c(O)c2)oc2cc(O)cc(O)c12 [quercetin] |  |  |  |  |  |  | IC50 [10]: ~85 µM |
| COc1ccc(C(=O)Nc2cc(Cl)ccc2C(=O)O)cc1 [SID 24797131] | 11.4 ± 3.2 | 6.3 ± 8.8 | > 10 | 0 | > 12.5 | not toxic |  |
| CCOC(=O)Cc1csc(-n2sc3ccccc3c2=O)n1 [SID 3716597] | 9.3 ± 0.3 | 7.8 ± 7.1 | > 10 | 27 ± 0.08 | > 12.5 | not toxic |  |
| CCCCCCCCCCCNC(=O)c1ccoc1C [SID 14728414] | 41.7 ± 3 | 1.9 ± 7 | > 10 | 0 | > 12.5 | not toxic | Fold less potent upon resupply (TbHK1 IC50 versus cherry-picked compound) [1]: 6.6 fold; % Inhibition of hGlck (10 µM) ([2]; 10 µM compound): minimal impact on the enzyme |
| O=c1c2ccccc2sn1-c1ccccc1 [SID 17387000, 2-phenyl-1,2-benzisothiazol-3(2H)-one] |  |  |  |  |  |  | inhibition at 10 µM [2]: 6.7 ± 9.4%; EC50 [3, 15]: 0.03 ± 0.067 µM; inhibition at 10 µM [4]: 48 ± 0.15%; EC50 ([5]; read-out: L. major EC50 (µM)): 1.9 ± 0.2 µM; Reduction in cellular G6P [8]: 29% and 18% |
| C/C(=C/CCC(C)[C@H]1CC[C@@]2(C)C3=C(CC[C@]12C)[C@@]1(C)CCC(=O)C(C)(C)[C@@H]1CC3)C(=O)O (some centres unmarked) [SID 22401406] |  | 0 | > 10 | 0 | > 12.5 | not toxic | IC50 [1]: 2.3 ± 0.3 µM; % Inhibition of hGlck (10 µM) ([2]; 10 µM compound): minimal impact on the enzyme |
| COC1=C/C(=C/C(C#N)=C2/NC3=C(CCCC3)S2)C=CC1=O [SID 17386310] | 33.6 ± 10.2 | 70.3 ± 3.6 | 0.038 ± 0.0038 | 50 ± 0.15 | 2.6 ± 0.1 |  | Fold less potent upon resupply (TbHK1 IC50 versus cherry-picked compound) [1]: 7.5 fold; % Inhibition of hGlck (10 µM) ([2]; 10 µM compound): more potent inhibitor |
| O=c1c(O)c(-c2cc(O)c(O)c(O)c2)oc2cc(O)cc(O)c12 [myricetin, reference compound] |  |  |  |  |  |  | inhibition at 10 µM ([1]; 10 µM, LOPAC validation screen, duplicate, read-out: Inhibition of TbHK1 enzymatic activity at 10 µM (LOPAC screen)): ≥ 40% |
| Cc1ccccc1-n1sc2cc(F)ccc2c1=O [SID 24785302] | 4.2 ± 1 | 6.9 ± 4.2 | 0.042 ± 0.0028 | 47 ± 0.15 | 1.9 ± 0.2 |  |  |
| O=c1c2ccccc2sn1-c1nccs1 [SID 24830882] |  | 88.8 ± 4.9 |  |  |  |  | IC50 [1]: 16.9 ± 0.1 µM; EC50 [3, 15]: 0.83 ± 0.2 µM; inhibition at 10 µM [4]: 8.6 ± 0.03%; EC50 ([5]; read-out: L. major EC50 (µM)): > 12.5 µM |
